The target of experiment [1] is human sodium channel Nav 1.8 (Homo sapiens (Human), UniProt Q9Y5Y9). In words: Automated whole-cell voltage-clamp (ScreenPatch 384P), Nav 1.8 sodium current, Protocol 2. In kind it is cell-based. As to conditions: read-out: Nav1.8 IC50. An outline of the steps:
(§1)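 Peak TP1A sodium current block, scaled between DMSO vehicle and positive control, was fitted with a Hill equation to give IC50 at eight compound concentrations (≥5 min, room temperature) in stable CHO lines. Protocol 2 (0.05 Hz) used an 8 s −40 mV inactivating prepulse from −100 mV; Protocol 1 (0.1 Hz) held at −90 mV; test steps 10 mV for Nav1.8, 0 mV for Nav1.7.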

The target of experiment [2] is human sodium channel Nav 1.7 (Homo sapiens (Human), UniProt Q15858). Briefly: Automated whole-cell voltage-clamp (ScreenPatch 384P), Nav 1.7 sodium current, Protocol 2. In kind it is cell-based. The note with it: read-out: Nav1.7 IC50. An outline of the steps:
as §1

Results on 25 molecules are retold here after patent publication US20240335442A1 (Eurofarma Laboratórios S.A., priority 2021, published 2024).

Chain of human sodium channel Nav 1.8 (Q9Y5Y9 whole entry): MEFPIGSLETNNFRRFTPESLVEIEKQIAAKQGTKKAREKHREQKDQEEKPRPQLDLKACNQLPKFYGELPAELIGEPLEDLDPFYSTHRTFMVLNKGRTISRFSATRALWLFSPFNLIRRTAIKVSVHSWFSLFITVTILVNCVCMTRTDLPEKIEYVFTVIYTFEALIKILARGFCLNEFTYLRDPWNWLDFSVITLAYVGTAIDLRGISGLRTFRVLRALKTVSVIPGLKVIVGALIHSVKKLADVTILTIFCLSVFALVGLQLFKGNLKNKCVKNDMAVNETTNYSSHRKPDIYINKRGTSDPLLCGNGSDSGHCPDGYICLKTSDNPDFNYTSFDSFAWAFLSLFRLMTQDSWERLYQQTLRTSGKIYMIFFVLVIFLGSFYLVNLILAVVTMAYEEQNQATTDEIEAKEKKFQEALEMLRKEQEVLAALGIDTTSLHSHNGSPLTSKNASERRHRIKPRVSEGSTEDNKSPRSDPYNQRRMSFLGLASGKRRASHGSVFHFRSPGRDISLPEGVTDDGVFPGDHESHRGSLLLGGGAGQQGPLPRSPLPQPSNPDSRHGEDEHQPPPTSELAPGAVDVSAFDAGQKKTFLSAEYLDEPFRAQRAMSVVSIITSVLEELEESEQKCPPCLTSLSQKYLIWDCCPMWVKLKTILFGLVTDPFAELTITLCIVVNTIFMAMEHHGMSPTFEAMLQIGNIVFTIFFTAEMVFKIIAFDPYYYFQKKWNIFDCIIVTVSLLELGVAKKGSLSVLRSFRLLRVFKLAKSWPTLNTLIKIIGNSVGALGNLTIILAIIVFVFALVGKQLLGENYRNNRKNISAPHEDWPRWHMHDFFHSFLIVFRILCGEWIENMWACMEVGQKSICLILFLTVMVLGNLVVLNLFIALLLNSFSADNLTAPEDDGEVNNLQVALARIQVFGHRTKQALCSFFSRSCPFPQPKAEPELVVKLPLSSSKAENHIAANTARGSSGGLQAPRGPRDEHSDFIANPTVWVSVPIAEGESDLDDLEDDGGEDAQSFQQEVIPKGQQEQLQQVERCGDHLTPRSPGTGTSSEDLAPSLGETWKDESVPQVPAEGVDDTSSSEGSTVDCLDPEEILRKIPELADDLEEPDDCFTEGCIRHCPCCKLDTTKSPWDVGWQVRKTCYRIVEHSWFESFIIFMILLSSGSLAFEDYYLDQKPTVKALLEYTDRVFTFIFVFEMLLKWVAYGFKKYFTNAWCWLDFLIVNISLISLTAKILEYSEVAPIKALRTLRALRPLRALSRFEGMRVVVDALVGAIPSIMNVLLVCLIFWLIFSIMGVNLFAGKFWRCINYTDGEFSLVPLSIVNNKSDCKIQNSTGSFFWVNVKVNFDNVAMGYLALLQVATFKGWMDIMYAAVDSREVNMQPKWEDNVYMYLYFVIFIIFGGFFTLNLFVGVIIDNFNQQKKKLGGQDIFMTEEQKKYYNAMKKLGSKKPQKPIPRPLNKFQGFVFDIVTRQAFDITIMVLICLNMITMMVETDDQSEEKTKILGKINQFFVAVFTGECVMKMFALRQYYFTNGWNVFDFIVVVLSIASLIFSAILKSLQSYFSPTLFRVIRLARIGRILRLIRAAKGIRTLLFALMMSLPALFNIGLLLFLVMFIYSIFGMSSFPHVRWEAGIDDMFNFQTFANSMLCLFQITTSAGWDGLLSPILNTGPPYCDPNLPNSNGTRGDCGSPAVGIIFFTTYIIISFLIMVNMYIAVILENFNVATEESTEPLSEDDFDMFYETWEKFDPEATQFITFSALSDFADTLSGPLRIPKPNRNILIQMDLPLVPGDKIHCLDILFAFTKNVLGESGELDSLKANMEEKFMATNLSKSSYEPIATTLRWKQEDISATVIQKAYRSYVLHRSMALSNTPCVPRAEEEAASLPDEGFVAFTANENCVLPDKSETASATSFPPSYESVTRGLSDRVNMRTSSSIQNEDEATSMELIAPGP
Chain of human sodium channel Nav 1.7 (Q15858 whole entry): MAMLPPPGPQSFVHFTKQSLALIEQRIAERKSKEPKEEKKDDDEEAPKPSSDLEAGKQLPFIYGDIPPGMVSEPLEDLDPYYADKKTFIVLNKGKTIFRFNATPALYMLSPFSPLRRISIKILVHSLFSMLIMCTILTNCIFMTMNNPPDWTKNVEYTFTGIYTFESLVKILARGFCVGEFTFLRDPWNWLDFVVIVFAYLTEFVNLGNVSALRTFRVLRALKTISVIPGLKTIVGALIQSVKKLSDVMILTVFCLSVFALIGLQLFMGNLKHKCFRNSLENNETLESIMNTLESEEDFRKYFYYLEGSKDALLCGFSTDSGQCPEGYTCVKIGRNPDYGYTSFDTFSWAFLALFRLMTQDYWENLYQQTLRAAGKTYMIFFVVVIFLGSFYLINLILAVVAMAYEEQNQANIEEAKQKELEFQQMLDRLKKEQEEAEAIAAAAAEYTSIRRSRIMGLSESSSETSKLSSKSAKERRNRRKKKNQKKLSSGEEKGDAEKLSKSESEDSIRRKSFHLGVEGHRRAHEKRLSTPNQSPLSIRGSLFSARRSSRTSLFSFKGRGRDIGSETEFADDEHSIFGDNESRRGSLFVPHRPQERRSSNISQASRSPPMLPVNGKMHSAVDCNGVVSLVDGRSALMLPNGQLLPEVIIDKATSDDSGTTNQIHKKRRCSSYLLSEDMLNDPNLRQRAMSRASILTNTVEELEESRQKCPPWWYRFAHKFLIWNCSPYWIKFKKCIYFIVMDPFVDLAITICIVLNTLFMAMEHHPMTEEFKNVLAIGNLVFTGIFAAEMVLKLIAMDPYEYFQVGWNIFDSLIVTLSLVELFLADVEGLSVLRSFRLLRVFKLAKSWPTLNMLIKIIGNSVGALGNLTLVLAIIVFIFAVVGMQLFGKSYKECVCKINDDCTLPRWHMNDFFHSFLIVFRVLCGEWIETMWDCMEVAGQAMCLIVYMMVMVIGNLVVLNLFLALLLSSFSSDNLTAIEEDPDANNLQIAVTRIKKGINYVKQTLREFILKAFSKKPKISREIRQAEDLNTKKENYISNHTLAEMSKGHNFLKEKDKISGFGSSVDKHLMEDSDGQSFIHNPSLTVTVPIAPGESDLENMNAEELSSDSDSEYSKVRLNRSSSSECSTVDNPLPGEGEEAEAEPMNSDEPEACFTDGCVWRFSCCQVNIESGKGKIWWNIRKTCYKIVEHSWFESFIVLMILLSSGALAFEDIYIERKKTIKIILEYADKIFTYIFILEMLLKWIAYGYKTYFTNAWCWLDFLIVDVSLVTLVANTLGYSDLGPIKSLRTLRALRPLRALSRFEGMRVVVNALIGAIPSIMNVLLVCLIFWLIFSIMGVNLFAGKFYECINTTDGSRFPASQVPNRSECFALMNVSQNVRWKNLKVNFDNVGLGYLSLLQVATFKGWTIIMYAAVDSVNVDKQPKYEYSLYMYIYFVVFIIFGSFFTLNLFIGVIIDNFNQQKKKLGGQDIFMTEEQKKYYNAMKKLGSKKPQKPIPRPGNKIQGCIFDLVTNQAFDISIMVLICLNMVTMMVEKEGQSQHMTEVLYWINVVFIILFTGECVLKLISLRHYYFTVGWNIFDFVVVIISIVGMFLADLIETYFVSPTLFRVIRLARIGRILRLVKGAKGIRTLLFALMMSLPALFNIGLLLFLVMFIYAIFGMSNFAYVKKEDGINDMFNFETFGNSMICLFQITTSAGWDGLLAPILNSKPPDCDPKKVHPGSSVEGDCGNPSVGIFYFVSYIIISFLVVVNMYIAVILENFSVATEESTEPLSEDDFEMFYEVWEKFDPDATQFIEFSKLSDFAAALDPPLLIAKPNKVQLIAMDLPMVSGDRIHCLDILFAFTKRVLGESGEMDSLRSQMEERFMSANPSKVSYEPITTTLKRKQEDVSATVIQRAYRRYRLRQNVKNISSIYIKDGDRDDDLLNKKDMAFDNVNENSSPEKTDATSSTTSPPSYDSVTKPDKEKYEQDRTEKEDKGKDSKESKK

Regarding `CCCc1ccc(-c2cncc(C(=O)N/N=C/c3cc(OC)cc(OC)c3)n2)cc1` [Compound 113, (E)-N′-(3,5-dimethoxybenzylidene)-6-(4-propylphenyl)pyrazine-2-carbohydrazide], the IC50 (in general, the point on the concentration scale where inhibition reaches its midpoint) in experiment [1] was 433 nM; in experiment [2], 1000 nM.
The matching figures for `COc1cc(/C=N/NC(=O)c2nccnc2C)cc(OC)c1` [Compound 139, (E)-N′-(3,5-dimethoxybenzylidene)-3-methylpyrazine-2-carbohydrazide]: more than 1000 nM and more than 10000 nM.
The matching figures for `COc1ccc(-c2cncc(C(=O)N/N=C/c3cc[nH]c(=O)c3)n2)cc1` [Compound 34, (E)-6-(4-methoxyphenyl)-N′-((2-oxo-1,2-dihydropyridin-4-yl)methylene)pyrazine-2-carbohydrazide]: more than 1000 nM and more than 10000 nM.
The like results for `CCOc1ccc(-c2cncc(C(=O)N/N=C/c3cccc(OC)c3F)n2)cc1` [Compound 21, (E)-6-(4-ethoxyphenyl)-N′-(2-fluoro-3-methoxybenzylidene)pyrazine-2-carbohydrazide] were, in that order, 74.5 nM and 268 nM.
`CCOc1ccc(-c2cncc(C(=O)N/N=C/C3CCC(F)(F)CC3)n2)cc1` [Compound 172, (E)-N′-((4,4-diflurocyclohexyl)methylene)-6-(4-ethoxyphenyl)pyrazine-2-carbohydrazide]: the results for the IC50 in experiment [1] and in experiment [2] were 573 nM and more than 10000 nM, respectively.
The matching figures for `CCOc1cc(/C=N/NC(=O)c2cncc(-c3ccc(OC)cc3)n2)cc(OCC)c1` [Compound 67, (E)-N′-(3,5-diethoxybenzylidene)-6-(4-methoxyphenyl)pyrazine-2-carbohydrazide]: 747 nM and 1930 nM.
The like results for `COc1ccc(-c2cncc(C(=O)N/N=C/c3ccccc3Cl)n2)cc1` [Compound 47, (E)-N′-(2-chlorobenzylidene)-6-(4-methoxyphenyl)pyrazine-2-carbohydrazide] were, in that order, 82 nM and 1420 nM.
In the case of `CCOc1ccc(-c2cncc(C(=O)N/N=C/c3ccnc(OC)c3)n2)cc1` [Compound 10, (E)-6-(4-ethoxyphenyl)-N′-((2-methoxypyridin-4-yl)methylene)pyrazine-2-carbohydrazide], the IC50 in experiment [1] and in experiment [2] was more than 300 nM each time.
For the molecule `CCOc1ccc(-c2cncc(C(=O)N/N=C/c3cc(OC)cc4ocnc34)n2)cc1` [Compound 6, (E)-6-(4-ethoxyphenyl)-N′-((6-methoxybenzo[d]oxazol-4-yl)methylene)pyrazine-2-carbohydrazide], the IC50 in experiment [1] and in experiment [2] was more than 300 nM throughout.
Consider `COc1cc(/C=N/NC(=O)c2cncc(OC)n2)cc(OC)c1` [Compound 140, (E)-N′-(3,5-dimethoxybenzylidene)-6-methoxypyrazine-2-carbohydrazide], for which the 50% inhibitory concentration (IC50) was more than 1000 nM in experiment [1] and more than 10000 nM in experiment [2].
The matching figures for `CCOc1ccc(-c2cnc(Oc3ccccc3)c(C(=O)N/N=C/c3cc(OC)cc(OC)c3)n2)cc1` [Compound 146, (E)-N′-(3,5-dimethoxybenzylidene)-6-(4-ethoxyphenyl)-3-phenoxypyrazine-2-carbohydrazide]: more than 300 nM and more than 300 nM.
The like results for `COc1cc(/C=N/NC(=O)c2cncc(-c3ccc(OC(F)(F)F)cc3)n2)cc(OC)c1` [Compound 31, N′-[(E)-(3,5-dimethoxyphenyl)methylidene]-6-[4-(trifluoromethoxy)phenyl]pyrazine-2-carbohydrazide] were, in that order, 132 nM and more than 10000 nM.
The like results for `COc1cc(/C=N/NC(=O)c2cncc(-c3ccc(F)cc3)n2)cc(OC)c1` [Compound 92, (E)-N′-(3,5-dimethoxybenzylidene)-6-(4-fluorophenyl)pyrazine-2-carbohydrazide] were, in that order, more than 1000 nM and more than 10000 nM.
On to `COc1ccc(-c2cncc(C(=O)N/N=C/c3cc(C(C)(C)C)cc(C(C)(C)C)c3)n2)cc1` [Compound 76, (E)-N′-(3,5-di-tert-butylbenzylidene)-6-(4-methoxyphenyl)pyrazine-2-carbohydrazide], for which the IC50 in experiment [1] was more than 1000 nM; in experiment [2] it was more than 10000 nM.
Take `COc1ccc(-c2cncc(C(=O)N/N=C/c3cccc(Cl)c3)n2)cc1` [Compound 54, (E)-N′-(3-chlorobenzylidene)-6-(4-methoxyphenyl)pyrazine-2-carbohydrazide]: the IC50 in experiment [1] was determined as 311 nM; in experiment [2], 2910 nM.
The matching figures for `COc1cc(/C=N/NC(=O)c2cncc(-c3ccc(OC(C)(C)C)cc3)n2)cc(OC)c1` [Compound 87, (E)-6-(4-(tert-butoxy)phenyl)-N′-(3,5-dimethoxybenzylidene)pyrazine-2-carbohydrazide]: 447 nM and 264 nM.
The matching figures for `CCOc1ccc(-c2cncc(C(=O)N/N=C/c3cc(OC)cc(OC)c3)n2)cc1Cl` [Compound 117, (E)-6-(3-chloro-4-ethoxyphenyl)-N′-(3,5-dimethoxybenzylidene)pyrazine-2-carbohydrazide]: 238 nM and 737 nM.
The matching figures for `CCOc1ccc(-c2nc(C(=O)N/N=C/c3cc(OC)cc(OC)c3)cnc2N)cc1` [Compound 206, (E)-5-amino-N′-(3,5-dimethoxybenzylidene)-6-(4-ethoxyphenyl)pyrazine-2-carbohydrazide]: more than 1000 nM and more than 10000 nM.
For `COc1ccc(-c2cncc(C(=O)N/N=C/c3ccccc3F)n2)cc1` [Compound 46, (E)-N′-(2-fluorobenzylidene)-6-(4-methoxyphenyl)pyrazine-2-carbohydrazide], the results for the IC50 in experiment [1] and in experiment [2] were 178 nM and 1990 nM, respectively.
The like results for `COc1cc(/C=N/NC(=O)c2nccnc2OC)cc(OC)c1` [Compound 141, (E)-N′-(3,5-dimethoxybenzylidene)-3-methoxypyrazine-2-carbohydrazide] were, in that order, more than 1000 nM and more than 10000 nM.
The matching figures for `COc1cc(/C=N/NC(=O)c2cncc(N3CCC(F)(F)C(C)C3)n2)cc(OC)c1` (centres unmarked) [Compound 169, (E)-6-(4,4-difluoro-3-methylpiperidin-1-yl)-N′-(3,5-dimethoxybenzylidene)pyrazine-2-carbohydrazide]: more than 1000 nM and more than 10000 nM.
The like results for `CCOc1ccc(-c2cncc(C(=O)N/N=C/c3cccc(OC)c3)n2)c(OC)c1` [Compound 108, (E)-6-(4-ethoxy-2-methoxyphenyl)-N′-(3-methoxybenzylidene)pyrazine-2-carbohydrazide] were, in that order, 17.7 nM and 30.8 nM.
`COc1ccc(-c2cncc(C(=O)N/N=C/c3cccc(OC(C)C)c3)n2)cc1` [Compound 41, (E)-N′-(3-isopropoxybenzylidene)-6-(4-methoxyphenyl)pyrazine-2-carbohydrazide]: the IC50 in experiment [1] stood at 94.5 nM; in experiment [2] it was 3290 nM.
The like results for `CCc1nccnc1C(=O)N/N=C/c1cc(OC)cc(OC)c1` [Compound 132, (E)-N′-(3,5-dimethoxybenzylidene)-3-ethylpyrazine-2-carbohydrazide] were, in that order, more than 1000 nM and more than 10000 nM.
Take `CCOc1ccc(-c2cncc(C(=O)N/N=C/c3cccc(OC)c3)n2)c(OC(C)C)c1` [Compound 154, (E)-6-(4-ethoxy-2-isopropoxyphenyl)-N′-(3-methoxybenzylidene)pyrazine-2-carbohydrazide]: the IC50 in experiment [1] is more than 1000 nM; in experiment [2] it was 1390 nM.
